Laboratory results published in patent US11589584B2, “Synergistic combination of 1,3-bis(hydroxymethyl)-5,5-dimethylimidazolidine-2,4-dione with glyoxal” (MC (US) 3 LLC, priority 2018, dated 2023).

Tested on: Pseudomonas aeruginosa (ATCC 8739) and Escherichia coli (ATCC 10145) mixed microorganism culture
Assay: Synergy in the planktonic phase: 48 h biocide challenge, regrowth read by turbidity in recovery media
Assay type: cell-based
Conditions: P. aeruginosa/E. coli mixed inoculum, phosphate buffer pH 7.3, 30° C., 48 hour challenge
Description: […] cultures were separately prepared from glycerol stocks. First they were streak plated and validated with a microscope. Single colonies were picked and used to inoculate 200 mL shake flasks that were grown statically overnight at 30° C. (30 grams/L Tryptic Soy Broth) to produce the initial inoculum of mixed microorganism culture. A deep-well 96 well challenge plate (2 mL maximum well volume) was prepared using 900 μL/well phosphate buffer at pH 7.3, (0.0027M potassium chloride, 0.137 M sodium chloride). Inoculation took place at the start of the experiments (with a 100 μL combined inoculum, adding to the 900 μL buffer to total 1 mL/well). […]
The inoculated assay block was challenged at 30° C. for 48 hours. […] This was done in triplicate for each point (the triplicate is already present in the biocide block viz. each point is truly determined in triplicate). […]
The recovery plates were subsequently read (checked for microbial growth) at 72 hours after addition of the culture, to recovery media. Ranking of biocidal efficacy was done by recording the development of turbidity within each well (determined by visual inspection). […] Ranking was done per average value of three data points determined per experiment. (Recorded in log regrowth).
Synergy Ratio Determined Using the Following Formulae. […]

CC1(C)C(=O)N(CO)C(=O)N1CO [DMDMH, 1,3-Bis(hydroxymethyl)-5,5-dimethylimidazolidine-2,4-dione]
DMDMH standalone 48 h pass (biocide used alone (QA)): 420 ppm

O=CC=O [Glyoxal, oxaldehyde]
Glyoxal standalone 48 h pass (used alone (QB)): 1800 ppm
